Ends that are not written are not given here. Peptide text beside a SMILES is read from it.
Columns and labels:
[1] = biological target: T1, CRF2R (Homo sapiens, UniProt Q13324); assay: CRF2R agonist activation (EC50 / Emax), called comparative CRF binding; format: cell-based; details: for Emax: read-out: CRF2R Emax
T1 sequence (Q13324 1-411): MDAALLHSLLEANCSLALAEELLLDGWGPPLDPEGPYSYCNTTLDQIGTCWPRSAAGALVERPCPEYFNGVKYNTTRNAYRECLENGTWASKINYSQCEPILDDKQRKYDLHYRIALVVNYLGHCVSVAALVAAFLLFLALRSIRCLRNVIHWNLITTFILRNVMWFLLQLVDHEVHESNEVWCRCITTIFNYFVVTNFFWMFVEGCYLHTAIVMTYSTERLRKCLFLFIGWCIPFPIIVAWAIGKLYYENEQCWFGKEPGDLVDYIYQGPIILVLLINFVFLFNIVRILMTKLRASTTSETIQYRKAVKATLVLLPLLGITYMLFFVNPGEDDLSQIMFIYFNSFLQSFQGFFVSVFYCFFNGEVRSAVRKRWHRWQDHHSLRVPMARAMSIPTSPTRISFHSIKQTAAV
Source text: (§1) The pharmacological activity and selectivity of the peptides of present invention can be determined using published test procedures. See, e.g, U.S. patent application Ser. No. 09/799,978 (now issued U.S. Pat. No. 6,670,140). Because CRF2R and CRF1R are homologous proteins, it is expected that a certain proportion of agonists for CRF2R will also function as agonists of CRF1R. As discussed above, activation of CRF1R induces activation of the HPA axis since increased corticosteroid production leads to skeletal muscle atrophy. In most cases in which an increase in muscle mass or function is desired, it is not desirable to activate the HPA axis.
(§2) Cell-based assays include the steps of contacting cells which express CRF1R or CRF2R with a peptide of the present invention or control and measuring activation of the CRFR by measuring the expression or activity of components of the CRFR signal transduction pathways.
(§3) For example, after contact with a peptide of the present invention, lysates of the cells can be prepared and assayed for induction of cAMP. cAMP is induced in response to Gαs activation. Because Gαs is activated by receptors other than CRFR and because a test peptide may be exerting its effect through CRFRs or by another mechanism, two control comparisons are relevant for determining whether the peptide increases levels of cAMP via activation of a CRFR. One control compares the cAMP level of cells contacted with the peptide and the cAMP level of cells contacted with a control compound (i.e., the vehicle in which the peptide is dissolved).
(§4) In one example, cAMP induction is measured with the use of DNA constructs containing the cAMP responsive element linked to any of a variety of reporter genes can be introduced into cells expressing CRFRs. Such reporter genes include, but are not limited to, chloramphenicol acetyltransferase (CAT), luciferase, glucuronide synthetase, growth hormone, fluorescent proteins (e.g., Green Fluorescent Protein), or alkaline phosphatase. Following exposure of the cells to the peptide, the level of reporter gene expression can be quantitated to determine the peptide's ability to increase cAMP levels and thus determine the peptide's ability to activate the CRFR.
(§5) In addition to using cells expressing full length CRFRs, cells can be engineered which express CRFRs containing the ligand binding domain of the receptor coupled to, or physically modified to contain, reporter elements or to interact with signaling proteins. For example, a wild type CRFR or CRFR fragment can be fused to a G-protein resulting in activation of the fused G-protein upon agonist binding to the CRFR portion of the fusion protein. […] In addition, alternative pathways for induction of the CRE reporter could be eliminated to reduce basal levels.

[2] = biological target: T2, CRF1R (Homo sapiens, UniProt P34998); assay: CRF1R agonist activation (EC50 / Emax), called comparative CRF binding; format: cell-based; details: for Emax: read-out: CRF1R Emax
T2 sequence (P34998 24-415): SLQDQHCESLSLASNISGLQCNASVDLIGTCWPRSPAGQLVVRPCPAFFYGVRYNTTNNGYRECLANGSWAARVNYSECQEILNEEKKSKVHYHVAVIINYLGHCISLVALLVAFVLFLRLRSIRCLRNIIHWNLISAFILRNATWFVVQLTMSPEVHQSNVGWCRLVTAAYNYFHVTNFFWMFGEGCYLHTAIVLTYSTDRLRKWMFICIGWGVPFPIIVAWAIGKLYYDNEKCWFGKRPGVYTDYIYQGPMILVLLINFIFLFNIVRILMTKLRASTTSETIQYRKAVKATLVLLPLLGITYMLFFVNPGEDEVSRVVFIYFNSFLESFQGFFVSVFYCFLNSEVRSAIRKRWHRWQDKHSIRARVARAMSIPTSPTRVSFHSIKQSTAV
Source text: as §1, §2, §3, §4, §5

Compound	Emax [1]	Emax [2]	EC50 ([1]; read-out: CRF2R EC50)	EC50 ([2]; read-out: CRF1R EC50)
CC[C@H](C)[C@H](NC(=O)[C@H](C)NC(=O)[C@H](CC(N)=O)NC(=O)[C@H](CCC(N)=O)NC(=O)[C@H](CCC(=O)O)NC(=O)[C@H](C)NC(=O)[C@H](CCCNC(=N)N)NC(=O)[C@H](CCC(=O)O)NC(=O)[C@H](CCCNC(=N)N)NC(=O)[C@H](CCC(N)=O)NC(=O)[C@H](CO)NC(=O)[C@H](CCC(N)=O)NC(=O)[C@@H](NC(=O)[C@H](CCCNC(=N)N)NC(=O)[C@H](C)NC(=O)[C@H](CC(C)C)NC(=O)[C@H](CCC(=O)O)NC(=O)[C@H](CC(C)C)NC(=O)[C@H](CC(C)C)NC(=O)[C@@H](NC(=O)[C@H](CCCNC(=N)N)NC(=O)[C@H](CC(C)C)NC(=O)[C@H](CC(C)C)NC(=O)[C@H](Cc1ccc(O)cc1)NC(=O)[C@H](Cc1ccc(O)cc1)NC(=O)[C@@H]1CCCN1C(=O)[C@H](CC(C)C)NC(=O)[C@H](CC(=O)O)NC(=O)[C@@H](NC(=O)[C@H](CO)NC(=O)[C@H](CC(C)C)NC(=O)[C@H](CO)NC(=O)[C@@H]1CCCN1C(=O)[C@H](CC(N)=O)NC(=O)[C@@H](N)CC(=O)O)[C@@H](C)CC)[C@@H](C)O)[C@@H](C)O)C(=O)N[C@H](C(=O)N[C@@H](Cc1ccccc1)C(=O)N[C@@H](C)C(=O)N[C@@H](CO)C(=O)N[C@H](C(N)=O)C(C)C)[C@@H](C)CC [compound 263] (H-DNPSLSIDLPYYLLRTLLELARTQSQRERAEQNAIIFASV-NH2; N-terminus assumed)	93%	72%		
CC[C@H](C)[C@H](N)C(=O)N[C@H](C(=O)N[C@@H](CC(C)C)C(=O)N[C@@H](CO)C(=O)N[C@@H](CC(C)C)C(=O)N[C@@H](CC(=O)O)C(=O)N[C@H](C(=O)N1CCC[C@H]1C(=O)N[C@H](C(=O)NCC(=O)N[C@@H](CC(C)C)C(=O)N[C@@H](CC(C)C)C(=O)N[C@@H](CCC(N)=O)C(=O)N[C@H](C(=O)N[C@@H](CC(C)C)C(=O)N[C@@H](CC(C)C)C(=O)N[C@@H](CCC(=O)O)C(=O)N[C@@H](CCC(N)=O)C(=O)N[C@@H](C)C(=O)N[C@@H](CCCCN)C(=O)N[C@@H](C)C(=O)N[C@@H](CCCNC(=N)N)C(=O)N[C@@H](C)C(=O)N[C@@H](C)C(=O)N[C@@H](CCCNC(=N)N)C(=O)N[C@@H](CCC(=O)O)C(=O)N[C@@H](CCC(N)=O)C(=O)N[C@@H](C)C(=O)N[C@H](C(=O)N[C@H](C(=O)N[C@@H](CC(N)=O)C(=O)N[C@@H](C)C(=O)N[C@@H](CCCNC(=N)N)C(=O)N[C@H](C(=O)N[C@@H](CC(C)C)C(=O)N[C@@H](C)C(=O)N[C@@H](CCCNC(=N)N)C(=O)N[C@H](C(N)=O)C(C)C)[C@@H](C)CC)[C@@H](C)O)[C@@H](C)O)[C@@H](C)CC)[C@@H](C)CC)C(C)C)C(C)C [compound 109] (H-IVLSLDVPIGLLQILLEQAKARAAREQATTNARILARV-NH2; N-terminus assumed)	91.7%	6.7%		
CC[C@H](C)[C@H](N)C(=O)N[C@H](C(=O)N[C@@H](CC(C)C)C(=O)N[C@@H](CO)C(=O)N[C@@H](CC(C)C)C(=O)N[C@@H](CC(=O)O)C(=O)N[C@H](C(=O)N1CCC[C@H]1C(=O)N[C@H](C(=O)NCC(=O)N[C@@H](CC(C)C)C(=O)N[C@@H](CC(C)C)C(=O)N[C@@H](CCC(N)=O)C(=O)N[C@H](C(=O)N[C@@H](CC(C)C)C(=O)N[C@@H](CC(C)C)C(=O)N[C@@H](CCC(=O)O)C(=O)N[C@@H](CCC(N)=O)C(=O)N[C@@H](CCC(=O)O)C(=O)N[C@@H](CCCCN)C(=O)N[C@@H](CCC(N)=O)C(=O)N[C@@H](CCC(=O)O)C(=O)N[C@@H](CCCCN)C(=O)N[C@@H](CCC(=O)O)C(=O)N[C@@H](CCCCN)C(=O)N[C@@H](CCC(N)=O)C(=O)N[C@@H](CCC(N)=O)C(=O)N[C@@H](C)C(=O)N[C@H](C(=O)N[C@H](C(=O)N[C@@H](CC(N)=O)C(=O)N[C@@H](C)C(=O)N[C@@H](CCCNC(=N)N)C(=O)N[C@H](C(=O)N[C@@H](CC(C)C)C(=O)N[C@@H](C)C(=O)N[C@@H](CCCNC(=N)N)C(=O)N[C@H](C(N)=O)C(C)C)[C@@H](C)CC)[C@@H](C)O)[C@@H](C)O)[C@@H](C)CC)[C@@H](C)CC)C(C)C)C(C)C [compound 167] (H-IVLSLDVPIGLLQILLEQEKQEKEKQQATTNARILARV-NH2; N-terminus assumed)	100%	15%		
SQEPPISLDLPFELLREVLEMTKADQLAQQAHSNRKLLDIA-NH2 [compound 97]	7.6%	4.25%		
CC[C@H](C)[C@H](N)C(=O)N[C@H](C(=O)N[C@@H](CC(C)C)C(=O)N[C@@H](CO)C(=O)N[C@@H](CC(C)C)C(=O)N[C@@H](CC(=O)O)C(=O)N[C@H](C(=O)N1CCC[C@H]1C(=O)N[C@H](C(=O)NCC(=O)N[C@@H](CC(C)C)C(=O)N[C@@H](CC(C)C)C(=O)N[C@@H](CCC(N)=O)C(=O)N[C@H](C(=O)N[C@@H](CC(C)C)C(=O)N[C@@H](CC(C)C)C(=O)N[C@@H](CCC(=O)O)C(=O)N[C@@H](CCC(N)=O)C(=O)N[C@@H](C)C(=O)N[C@@H](C)C(=O)N[C@@H](CCCNC(=N)N)C(=O)N[C@@H](CCC(=O)O)C(=O)N[C@@H](CCC(N)=O)C(=O)N[C@@H](C)C(=O)N[C@H](C(=O)N[C@H](C(=O)N[C@@H](CC(N)=O)C(=O)N[C@@H](C)C(=O)N[C@@H](CCCNC(=N)N)C(=O)N[C@H](C(=O)N[C@@H](CC(C)C)C(=O)N[C@@H](C)C(=O)N[C@@H](CCCNC(=N)N)C(=O)N[C@H](C(N)=O)C(C)C)[C@@H](C)CC)[C@@H](C)O)[C@@H](C)O)[C@@H](C)CC)[C@@H](C)CC)C(C)C)C(C)C [compound 138] (H-IVLSLDVPIGLLQILLEQAAREQATTNARILARV-NH2; N-terminus assumed)	46%	5%	59 nM	> 100 nM
CC[C@H](C)[C@H](N)C(=O)N[C@H](C(=O)N[C@@H](CC(C)C)C(=O)N[C@@H](CO)C(=O)N[C@@H](CC(C)C)C(=O)N[C@@H](CC(=O)O)C(=O)N[C@H](C(=O)N1CCC[C@H]1C(=O)N[C@H](C(=O)NCC(=O)N[C@@H](CC(C)C)C(=O)N[C@@H](CC(C)C)C(=O)N[C@@H](CCC(N)=O)C(=O)N[C@H](C(=O)N[C@@H](CC(C)C)C(=O)N[C@@H](CC(C)C)C(=O)N[C@@H](CCC(=O)O)C(=O)N[C@@H](CCC(N)=O)C(=O)N[C@H](C(=O)N[C@@H](CCCCN)C(=O)N[C@@H](C)C(=O)N[C@@H](CCCNC(=N)N)C(=O)N[C@@H](C)C(=O)N[C@@H](C)C(=O)N[C@@H](CCCNC(=N)N)C(=O)N[C@@H](CCC(=O)O)C(=O)N[C@@H](CCC(N)=O)C(=O)N[C@@H](C)C(=O)N[C@H](C(=O)N[C@H](C(=O)N[C@@H](CC(N)=O)C(=O)N[C@@H](C)C(=O)N[C@@H](CCCNC(=N)N)C(=O)N[C@H](C(=O)N[C@@H](CC(C)C)C(=O)N[C@@H](C)C(=O)N[C@@H](CCCNC(=N)N)C(=O)N[C@H](C(N)=O)C(C)C)[C@@H](C)CC)[C@@H](C)O)[C@@H](C)O)[C@@H](C)O)[C@@H](C)CC)[C@@H](C)CC)C(C)C)C(C)C [compound 117] (H-IVLSLDVPIGLLQILLEQTKARAAREQATTNARILARV-NH2)	98.8%	7.8%		

Source: patent US6936585B2, “Corticotropin releasing factor 2 receptor agonists” (priority 2002, dated 2005)
